# Data as given in US20150018546A1, “HETEROCYCLIC COMPOUND HAVING ANTI-HIV ACTIVITY” (TOYAMA CHEMICAL CO., LTD., priority 2012, published 2015).
# Test system: HIV-1 (JRCSF)
# Assay: Anti-HIV activity in MaRBLE cells infected with HIV-1 (JRCSF), luciferase readout
# Assay type: cell-based
# Conditions: Human immunodeficiency virus 1, 168 h, read-out: Anti-HIV activity IC50
# Protocol: This test was conducted with reference to Journal of Clinical Microbiology, 2007, Vol. 45, p. 477-487.
# The anti-HIV activity was evaluated using MaRBLE cells in which a luciferase gene to be expressed under the control of HIV-1 LTR and a CCR5 gene, etc. were introduced in human T lymphocyte-derived HPB-M(a).
# A fresh medium or each appropriately diluted test compound was dispensed to 96-well plates to prepare drug solution-containing plates.
# The MaRBLE cells were suspended in RPMI1640 containing 10% FCS (fetal calf serum) and penicillin/streptomycin and infected with HIV-1 (JRCSF). Then, the cells were inoculated to the drug solution-containing plates (1×10^5 cells/well). The same number of uninfected cells were inoculated as a control group to the drug solution-containing plates.
# After culture at 37° C. for 7 days in a 5% CO2 atmosphere, the intracellular luciferase activity was measured using Steady-Glo Luciferase assay system (Promega Corp.).
# The rate of viral proliferation was determined according to the following expression:
# Rate of viral proliferation(%)=(A/B)×100
# A=(Firefly luciferase activity of the compound-supplemented well)−(Firefly luciferase activity of the uninfected cells)
# B=(Firefly luciferase activity of the compound-free well)−(Firefly luciferase activity of the uninfected cells)
# IC50 of the compound was calculated by a plot with concentration as the logarithm and the rate of viral proliferation as the real part using the FORECAST function (linear regression method) of Microsoft Office Excel 2003.
row,Structure (SMILES),IC50 [nM]
1,"CNc1cccc(CNc2cc(=O)n(O)c3ncnc(C)c23)c1 [Example 84, 8-hydroxy-4-methyl-5-((3-(methylamino)benzyl)amino)pyrido[2,3-d]pyrimidin-7(8H)-one]",76

# Same assay, conditions: Human immunodeficiency virus 1, 168 h; MaRBLE cells (human T lymphocyte-derived HPB-M(a)) infected with HIV-1 (JRCSF); 7 days culture; rate of viral proliferation by luciferase activity; read-out: Anti-HIV activity IC50
row,Structure (SMILES),IC50 [nM]
1,"Cc1ncnc2c1c(NCc1cccnc1N1CCOCC1)cc(=O)n2O [Example 57, 8-hydroxy-4-methyl-5-(((2-(morpholin-4-yl)pyridin-3-yl)methyl)amino)pyrido[2,3-d]pyrimidin-7(8H)-one]",85
2,"Cc1ncnc2c1c(NCc1ccc(OCC(F)(F)F)nc1)cc(=O)n2O [Example 58, 8-hydroxy-4-methyl-5-(((6-(2,2,2-trifluoroethoxy)pyridin-3-yl)methyl)amino)pyrido[2,3-d]pyrimidin-7(8H)-one]",94
3,"Cc1ncnc2c1c(NC(c1ccccc1)c1ccccc1)cc(=O)n2O [Example 59, 5-((diphenylmethyl)amino)-8-hydroxy-4-methylpyrido[2,3-d]pyrimidin-7(81-1)-one]",160
4,"O=c1cc(NCc2ccccc2)c2c(-c3ccccc3)ncnc2n1O [Example 60, 5-(benzylamino)-8-hydroxy-4-phenylpyrido[2,3-d]pyrimidin-7(8H)-one]",190
5,"O=c1cc(O)c2c(-c3ccccc3)ncnc2n1O [Example 61, 5,8-dihydroxy-4-phenylpyrido[2,3-d]pyrimidin-7(8H)-one]",490
6,"O=C(NCc1ccccc1)c1ncnc2c1c(O)cc(=O)n2O [Example 63, N-benzyl-5,8-dihydroxy-7-oxo-7,8-dihydropyrido[2,3-d]pyrimidine-4-carboxamide]",870
7,"Cc1ncnc2c1c(O)c(-c1ccccc1)c(=O)n2O [Example 64, 5,8-dihydroxy-4-methyl-6-phenylpyrido[2,3-d]pyrimidin-7(8H)-one]",350
8,"O=c1cc(O)c2c(Cc3ccccc3)ncnc2n1O [Example 66, 4-benzyl-5,8-dihydroxypyrido[2,3-d]pyrimidin-7(8H)-one]",560
9,"O=c1c(-c2ccccc2)c(O)c2c(-c3ccccc3)ncnc2n1O [Example 67, 5,8-dihydroxy-4,6-diphenylpyrido[2,3-d]pyrimidin-7(8H)-one]",160
10,"Cc1c(O)c2c(-c3ccccc3)ncnc2n(O)c1=O [Example 68, 5,8-dihydroxy-6-methyl-4-phenylpyrido[2,3-d]pyrimidin-7(8H)-one]",250
11,"O=C(NCc1ccccc1)c1cc2c(NCc3ccccc3)ncnc2n(O)c1=O [Example 70, N-benzyl-4-(benzylamino)-8-hydroxy-7-oxo-7,8-dihydropyrido[2,3-d]pyrimidine-6-carboxamide]",790
12,"Cc1ncnc2c1c(NCc1ccccc1-c1cccnc1)cc(=O)n2O [Example 72, 8-hydroxy-4-methyl-5-((2-(pyridin-3-yl)benzyl)amino)pyrido[2,3-d]pyrimidin-7(8H)-one]",150
13,"O=c1cc(O)c2c(O)ncnc2n1O [Example 77, 4,5,8-trihydroxypyrido[2,3-d]pyrimidin-7(8H)-one]",590
14,"O=C(NCc1ccccc1)c1c(O)c2c(NCc3ccccc3)ncnc2n(O)c1=O [Example 78, N-benzyl-4-(benzylamino)-5,8-dihydroxy-7-oxo-7,8-dihydropyrido[2,3-d]pyrimidine-6-carboxamide]",300
15,"O=c1cc(O)c2c(NCc3ccccc3)ncnc2n1O [Example 79, 4-(benzylamino)-5,8-dihydroxypyrido[2,3-d]pyrimidine-7(8H)-one]",820
16,"O=c1cc(O)c2c(NCCc3ccccc3)ncnc2n1O [Example 80, 5,8-dihydroxy-4-((2-phenylethyl)amino)pyrido[2,3-d]pyrimidine-7(8H)-one]",570
17,"O=C(Nc1ccccc1)c1c(O)c2c(Nc3ccccc3)ncnc2n(O)c1=O [Example 81, 4-anilino-5,8-dihydroxy-7-oxo-N-phenyl-7,8-dihydropyrido[2,3-d]pyrimidine-6-carboxamide]",360
18,"Cc1ncnc2c1c(NCc1ccc(C(F)(F)F)nc1)cc(=O)n2O [Example 83, 8-hydroxy-4-methyl-5-(((6-(trifluoromethyl)pyridin-3-yl)methyl)amino)pyrido[2,3-d]pyrimidine-7(8H)-one]",370
19,"Cc1ncnc2c1c(NCCc1cccnc1)cc(=O)n2O [Example 85, 8-hydroxy-4-methyl-5-((2-(pyridin-3-yl)ethyl)amino)pyrido[2,3-d]pyrimidin-7(8H)-one]",310
20,"Cc1ncnc2c1c(NCCc1ccncc1)cc(=O)n2O [Example 86, 8-hydroxy-4-methyl-5-((2-(pyridin-4-yl)ethyl)amino)pyrido[2,3-d]pyrimidin-7(8H)-one]",500

row,Structure (SMILES),IC50 [nM]
1,"Cc1ncnc2c1c(Nc1ccccc1)cc(=O)n2O [Example 87, 5-anilino-8-hydroxy-4-methylpyrido[2,3-d]pyrimidin-7(8H)-one]",81
2,"Cc1ncnc2c1c(NCc1ccc3cc[nH]c3c1)cc(=O)n2O [Example 88, 8-hydroxy-5-(((1H-indol-6-yl)methyl)amino)-4-methylpyrido[2,3-d]pyrimidin-7(8H)-one]",63
3,"Cc1ncnc2c1c(NCc1cccc3[nH]ccc13)cc(=O)n2O [Example 89, 8-hydroxy-5-(((1H-indol-4-yl)methyl)amino)-4-methylpyrido[2,3-d]pyrimidin-7(8H)-one]",85
4,"Cc1ncnc2c1c(NC1CCN(C)CC1)cc(=O)n2O [Example 90, 8-hydroxy-4-methyl-5-((1-methylpiperidin-4-yl)amino)pyrido[2,3-d]pyrimidin-7(8H)-one]",580
5,"Cc1ncnc2c1c(NCCc1ccccn1)cc(=O)n2O [Example 92, 8-hydroxy-4-methyl-5-((2-(pyridin-2-yl)ethyl)amino)pyrido[2,3-d]pyrimidin-7(8H)-one]",31
6,"Cc1ncnc2c1c(NCc1ccc3[nH]ccc3c1)cc(=O)n2O [Example 93, 8-hydroxy-5-(((1H-indol-5-yl)methyl)amino)-4-methylpyrido[2,3-d]pyrimidin-7(8H)-one]",45
7,"Cc1ncnc2c1c(NCc1ccc(-c3ccccc3)nc1)cc(=O)n2O [Example 94, 8-hydroxy-4-methyl-5-(((6-phenylpyridin-3-yl)methyl)amino)pyrido[2,3-d]pyrimidin-7(8H)-one]",43
8,"Cc1ncnc2c1c(NCc1cc3ccccc3[nH]1)cc(=O)n2O [Example 95, 8-hydroxy-5-(((1H-indol-2-yl)methyl)amino)-4-methylpyrido[2,3-d]pyrimidin-7(8H)-one]",110
9,"O=c1cc(NCc2ccc(-c3ccccc3)cc2)c2cncnc2n1O [Example 97, 5-(((biphenyl-4-yl)methyl)amino)-8-hydroxypyrido[2,3-d]pyrimidin-7(8H)-one]",200
10,"CN(C)c1ccc(CNc2cc(=O)n(O)c3ncncc23)cc1 [Example 102, 5-((4-(dimethylamino)benzyl)amino)-8-hydroxypyrido [2,3-d]pyrimidin-7(8H)-one]",210
11,"O=c1cc(NCc2ccc(O)cc2)c2cncnc2n1O [Example 103, 8-hydroxy-5-((4-hydroxybenzyl)amino)pyrido[2,3-d]pyrimidin-7(8H)-one]",200
12,"O=C(NCc1ccccc1)c1c(O)c2cncnc2n(O)c1=O [Example 105, N-benzyl-5,8-dihydroxy-7-oxo-7,8-dihydropyrido[2,3-d]pyrimidine-6-carboxamide]",64
13,"Cc1ncnc2c1c(NCc1cccnc1)cc(=O)n2O [Example 106, 8-hydroxy-4-methyl-5-(((pyridin-3-yl)methyl)amino)pyrido[2,3-d]pyrimidin-7(8H)-one]",80
14,"O=c1cc(NCc2ccc(O)c(O)c2)c2cncnc2n1O [Example 108, 5-((3,4-dihydroxybenzyl)amino)-8-hydroxypyrido[2,3-d]pyrimidin-7(8H)-one]",570
15,"Cc1ncnc2c1c(NCc1ccc(O)cc1)cc(=O)n2O [Example 110, 8-hydroxy-5-((4-hydroxybenzyl)amino)-4-methylpyrido[2,3-d]pyrimidin-7(8H)-one]",49
16,"Cc1ncnc2c1c(O)c(C(=O)NCc1ccccc1)c(=O)n2O [Example 111, N-benzyl-5,8-dihydroxy-4-methyl-7-oxo-7,8-dihydropyrido[2,3-d]pyrimidine-6-carboxamide]",8.4
17,"Cc1ncnc2c1c(NCc1ccccc1O)cc(=O)n2O [Example 112, 8-hydroxy-5-((2-hydroxybenzyl)amino)-4-methylpyrido[2,3-d]pyrimidin-7(8H)-one]",28
18,"Cc1ncnc2c1c(NCc1ccc(O)c(O)c1)cc(=O)n2O [Example 113, 5-((3,4-dihydroxybenzyl)amino)-8-hydroxy-4-methylpyrido[2,3-d]pyrimidin-7(8H)-one]",73
19,"Cc1ncnc2c1c(NCc1cccc(O)c1)cc(=O)n2O [Example 114, 8-hydroxy-5-((3-hydroxybenzyl)amino)-4-methylpyrido[2,3-d]pyrimidin-7(8H)-one]",42
20,"O=c1cc(NCc2ccccc2)c2c(O)ncnc2n1O [Example 115, 5-(benzylamino)-4,8-dihydroxypyrido[2,3-d]pyrimidin-7(8H)-one]",150
